# Like-named read-outs stand apart in the source and are kept apart here.
# Legend:
# [1] = test system: M. tuberculosis H37Ra ATCC 25177; test: In vitro antimycobacterial evaluation, alamarBlue (MIC); assay type: cell-based; conditions: Mycobacterium tuberculosis, 168 h, read-out: MIC MT
# Method: The evaluation of the in vitro antimycobacterial activity of the compounds was performed against M. tuberculosis H37Ra ATCC 25177 [25] and clinical isolate of M. avium subsp. paratuberculosis CIT03 [26], see Table 1. The activity of compounds was expressed as the minimum inhibitory concentration (MIC) that is defined for mycobacteria as a 90% or greater (IC90) reduction of growth in comparison with the control. The MIC/IC90 value is routinely and widely used in bacterial assays, being a standard detection limit according to the Clinical and Laboratory Standards Institute.
# Mycobacterium tuberculosis H37Ra ATCC 25177 and well characterised clinical isolate M. avium subsp. paratuberculosis CIT03 were grown in Middlebrook broth (MB), supplemented with Oleic-Albumin-Dextrose-Catalase supplement (Becton Dickinson, Oxford, UK) and mycobactin J (2 μg/mL). Identification of these isolates was performed using biochemical and molecular protocols. At log phase growth, a culture sample (10 mL) was centrifuged at 15,000 rpm/20 min using a bench top centrifuge (Model CR 4-12, Jouan Inc., Winchester, VA, USA). Following removal of the supernatant, the pellet was washed in fresh Middlebrook 7H9GC broth and re-suspended in fresh supplemented MB (10 mL). The turbidity was adjusted to match McFarland standard No. 1 (3 × 10^8 cfu) with MB broth. A further 1:20 dilution of the culture was then performed in MB broth. The antimicrobial susceptibility of all three mycobacterial species was investigated in a 96-well plate format. In these experiments, sterile deionised water (300 µL) was added to all outer-perimeter wells of the plates to minimize evaporation of the medium in the test wells during incubation. Sample wells were composed of 100 µL of test compound dilution and 100 µL of the bacterial stock being tested against. Dilutions of each compound were prepared in duplicate. For all synthesized compounds, final concentrations ranged from 1000 μg/mL to 8 μg/mL. All compounds were prepared in DMSO and subsequent dilutions were made in supplemented MB. The plates were sealed with parafilm and incubated at 37 °C, for 7 days in the case of M. tuberculosis and 11 days in the case of M. avium subsp. paratuberculosis. Following incubation, a 10% addition of alamarBlue (AbD Serotec, Kidlington, UK) was mixed into each well and readings at 570 nm and 600 nm were taken, initially for background subtraction and subsequently after 24 h re-incubation. The background subtraction is necessary for strongly coloured compounds, where the colour may interfere with the interpretation of any colour change. For non-interfering compounds, a blue colour in the well was interpreted as an absence of growth and a pink colour was scored as growth. […] The MIC value is routinely and widely used in bacterial assays and is a standard detection limit according to the Clinical and Laboratory Standards Institute (CLSI,). Rifampicin (Sigma-Aldrich) was used as the standard as it is clinically used antimycobacterial drugs.
# [2] = test system: photosynthetic electron transport in spinach chloroplasts; test: Inhibition of photosynthetic electron transport (PET), DCPIP photoreduction (Hill reaction); assay type: biochemical, spinach (Spinacia oleracea L.)
# Method: The PET inhibiting activity of the compounds was expressed by IC50 values. […] The aqueous solubility of the para-substituted compounds was limited; therefore IC50 values could not be determined due to precipitation of compounds during experiment. […]
# Chloroplasts were prepared from spinach (Spinacia oleracea L.) according to Masarovicova and Kralova. The inhibition of photosynthetic electron transport (PET) in spinach chloroplasts was determined spectrophotometrically (Genesys 6, Thermo Scientific Corporation), using an artificial electron acceptor 2,6-dichlorophenol-indophenol (DCPIP) according to Kralova et al., and the rate of photosynthetic electron transport was monitored as a photoreduction of DCPIP. The measurements were carried out in phosphate buffer (20.0 mM, pH 7.2) containing sucrose (0.4 M), MgCl2 (5.0 mM) and NaCl (15.0 mM). The chlorophyll content was 30 mg/L in these experiments and the samples were irradiated (~100 W/m^2 with 10 cm distance) with a halogen lamp (250 W) using a 4 cm water filter to prevent warming of the samples (suspension temperature 22 °C). The studied compounds were dissolved in DMSO due to their limited aqueous solubility. The applied DMSO concentration (up to 4%) had negligible effect on the photochemical activity in isolated spinach chloroplasts (observed differences in DCPIP photoreduction due DMSO addition were within experimental error). The inhibitory efficiency of the studied compounds was expressed by IC50 values, i.e., by molar concentration of the compounds causing 50% decrease in DCPIP photoreduction relative to the untreated control. […] All reagents used in this study were of analytical grade and were purchased from Sigma.
# [3] = test system: methicillin-resistant S. aureus clinical isolate SA 3202; test: In vitro antibacterial susceptibility testing, broth dilution micro-method (MIC); conditions: 24 h; for MIC: Staphylococcus aureus, MRSA, read-out: MIC MRSA 3202, clinical isolate MRSA 3202, 37 °C, MH broth
# [4] = test system: methicillin-resistant S. aureus clinical isolate SA 630; test: as above; conditions: 24 h; for MIC: Staphylococcus aureus, MRSA, read-out: MIC MRSA SA 630, clinical isolate MRSA SA 630, 37 °C, MH broth
# [5] = test system: human monocytic leukemia THP-1 cells; conditions: 24 h
# [6] = test system: methicillin-resistant S. aureus clinical isolate MRSA 63718; test: In vitro antibacterial susceptibility testing, broth dilution micro-method (MIC); conditions: for MIC: Staphylococcus aureus, MRSA, read-out: MIC MRSA 63718, clinical isolate MRSA 63718
# S. aureus ATCC 29213 = test: as above; conditions: Staphylococcus aureus, ATCC29213, 24 h, read-out: MIC SA
# [7] = test system: clinical isolate of M. avium subsp. paratuberculosis CIT03; test: In vitro antimycobacterial evaluation, alamarBlue (MIC); assay type: cell-based; conditions: Mycobacterium avium, 264 h, read-out: MIC MAP
# [8] = test system: M. tuberculosis H37Ra ATCC 25177; test: MTT assay of mycobacterial viability; assay type: cell-based; conditions: Mycobacterium tuberculosis, 168 h; at the lowest tested concentration 8 µg/mL, ca. 24 µM; 7 days
# Method: The MTT assay is a well-characterized method of assessing cell growth through measurement of respiration. For the purpose of this assay, an MTT measured viability of M. tuberculosis H37Ra of less than 70% after exposure to the MIC of each tested compound was considered a positive result.
# For the MTT assay, the outer wells of a 96-well plate were filled with 200 µL of sterile water, and the inner wells were filled with 100 µL of the tested compound at the concentration to be examined. Compounds were prepared as previously stated and diluted in Middlebrook media to achieve the desired concentration. Mycobacterium tuberculosis H37Ra ATCC 25177 was suspended in ODAC supplemented Middlebrook broth at a MacFarland standard of 1.0 and then diluted through a 1:20, using Middlebrook broth as a diluent. The diluted mycobacteria (100 µL) were added to each well containing the compound to be tested. A negative growth control was composed of 100 µL of DMSO and 100 µL of media, and the diluted mycobacteria in broth absent of inhibiting compounds were used as a positive growth control. All compounds and controls were prepared in triplicate. Plates were incubated at 37 °C for 7 days. After the incubation period, 10% well volume of MTT reagent was mixed into each well and incubated at 37 °C for 24 h. The reagent and media were then aspirated from the wells, to which 50 µL 99% isopropanol was then added, and plates were read at 570 nm. The absorbance readings from the cells, grown in the presence of the tested compounds, were compared with uninhibited cell growth (using DMSO as the blank) to determine the relative percent viability. The percent viability was determined through the MTT assay. The percent viability is calculated through comparison of a measured value against that of the uninhibited control: %viability = OD570E/OD570P × 100, where OD570E is the reading from the compound-exposed cells, while OD570P is the reading from the uninhibited cells (positive control). Cytotoxic potential is determined by a percent viability of <70%.
# [9] = M. tuberculosis H37Ra, 7 days, 37 °C, alamarBlue, MIC/IC90
# [10] = M. avium subsp. paratuberculosis CIT03, 11 days, 37 °C, alamarBlue, MIC/IC90
SMILES,"MIC [1, 9]",IC50 [2],MIC [3],MIC [4],LD50 [5],"MIC ([6]; 24 h, 24 h, 37 °C, MH broth)",MIC (S. aureus ATCC 29213),MIC [7],"MIC [7, 10]",MIC [1],viability at 8 µg/mL [8],"MIC MRSA 3202 ([3]; clinical isolate MRSA 3202, 37 °C, MH broth)","MIC MRSA SA 630 ([4]; clinical isolate MRSA SA 630, 37 °C, MH broth)",activity fold higher than that of ampicillin ([6]; antibacterial activity against MRSA strains versus ampicillin),"MIC MRSA 63718 ([6]; clinical isolate MRSA 63718, 24 h, 37 °C, MH broth)"
"CCOc1ccccc1NC(=O)c1cc2ccccc2cc1O [Compound 4a, N-(2-Ethoxyphenyl)-3-hydroxynaphthalene-2-carboxamide]",813 µM,76.1 µM,832 µM,832 µM,>30 µM,832 µM,832 µM,813 µM,,,,,,,
"CCCCOc1ccccc1NC(=O)c1cc2ccccc2cc1O [Compound 6a, N-(2-Butoxyphenyl)-3-hydroxynaphthalene-2-carboxamide]",373 µM,182 µM,763 µM,763 µM,>30 µM,763 µM,763 µM,,745 µM,,,,,,
"CCCCOc1cccc(NC(=O)c2cc3ccccc3cc2O)c1 [Compound 6b, N-(3-Butoxyphenyl)-3-hydroxynaphthalene-2-carboxamide]",745 µM,7.8 µM,763 µM,763 µM,16.5 ± 0.8 µM,763 µM,763 µM,745 µM,,,,,,,
"CC(C)Oc1ccccc1NC(=O)c1cc2ccccc2cc1O [Compound 7a, 3-Hydroxy-N-[2-(prop-2-yloxy)phenyl]naphthalene-2-carboxamide]",389 µM,138 µM,796 µM,796 µM,>30 µM,796 µM,796 µM,,778 µM,,,,,,
"CC(C)Oc1cccc(NC(=O)c2cc3ccccc3cc2O)c1 [Compound 7b, 3-Hydroxy-N-[3-(prop-2-yloxy)phenyl]naphthalene-2-carboxamide]",,6.9 µM,796 µM,796 µM,,796 µM,796 µM,,778 µM,24 µM,10.7%,,,,
"CCC(C)Oc1ccccc1NC(=O)c1cc2ccccc2cc1O (stereo not shown) [Compound 8a, N-[2-(But-2-yloxy)phenyl]-3-hydroxynaphthalene-2-carboxamide]",23 µM,134 µM,12 µM,12 µM,,12 µM,5.9 µM,,89 µM,,23.9%,11.9 µM,11.9 µM,~4 fold,11.9 µM
"CCC(C)Oc1cccc(NC(=O)c2cc3ccccc3cc2O)c1 (stereo not shown) [Compound 8b, N-[3-(But-2-yloxy)phenyl]-3-hydroxynaphthalene-2-carboxamide]",23 µM,8.3 µM,763 µM,763 µM,2.7 ± 0.7 µM,763 µM,763 µM,,745 µM,,21.7%,,,,

# Reference: publication PMC6272341, “Synthesis and Biological Evaluation of N-Alkoxyphenyl-3-hydroxynaphthalene-2-carboxanilides” (Molecules, 2015)
